{"source": "patent US20030032602A1", "about": "“Methods and compositions for collagen homeostasis” (priority 2001, published 2003)", "test_system": "collagenase from Clostridium histolyticum (EC 3.4.24.3)", "assay": "Inhibition of collagenase with fluorophor labeled Gelatin-FL, Collagen I-FL and Collagen IV-FL as substrate", "format": "biochemical", "settings": "substrates collagen I, collagen IV and denatured collagen (gelatin), fluorescence-labeled; incubation 60 min at 37° C.; FIGS. 1A-1C", "experimental": "The following examples have been provided to illustrate various aspects of the inventive subject matter. More particularly, all examples employed commercially available collagenase from Clostridium histolyticum (EC 3.4.24.3; Fluka Chemie AG, Switzerland) and commercially available collagen-I and collagen-IV (Molecular Probes, OR, USA).\nInhibition of collagenase from Clostridium histolyticum was determined using fluorophor labeled Gelatin-FL, Collagen I-FL and Collagen IV-FL as substrate. Negative control was Mg ascorbyl-2-phosphate (MAP), and exemplary boron-containing compounds were AB(F-D) and AB (V-E), which represented two different batches of potassium ascorbato-borates. The assay was performed under standard conditions with incubation and of substrate for 60 min at 37° C. and fluorescence was measured in a standard fluorometer. The results of the inhibition experiments are depicted in FIGS. 1A-1C. With respect to the inhibitors, the first column represents the negative control MAP, while the second and third columns represent exemplary boron-containing compounds AB(F-D) (potassium ascorbato-borate) and AB(V-E) (potassium ascorbato-borate). […] Moreover, additional experiments (data not shown) confirmed the inhibitory character of numerous other boron-containing compounds, and especially boron-containing compounds in which borate is complexed by one or more ligands.", "data": [{"substance": "potassium ascorbato-borate [AB(F-D)]", "values": [{"measurement": "inhibition of collagenase", "value": "specific inhibitory compounds for collagenase"}]}]}
